Here are results for two molecules from article PMC6952197, “Harvesting of Prebiotic Fructooligosaccharides by Nonbeneficial Human Gut Bacteria” (mSphere, 2020).

For orientation: Kd means the equilibrium constant for the complex coming apart. High values mean lower affinity, low ones higher affinity. A word on the Km: it is the substrate concentration at which the rate is half of its maximum.

For series [1], the target named is T1, Dorea PTS_EIIBCA (I9 PTS_EIIBCA) (uncultured bacterium, UniProt S6CP27).
T1 construct: full-length single multidomain protein (domains B, C, A; ten predicted transmembrane helices)
T1 sequence (S6CP27 1-643): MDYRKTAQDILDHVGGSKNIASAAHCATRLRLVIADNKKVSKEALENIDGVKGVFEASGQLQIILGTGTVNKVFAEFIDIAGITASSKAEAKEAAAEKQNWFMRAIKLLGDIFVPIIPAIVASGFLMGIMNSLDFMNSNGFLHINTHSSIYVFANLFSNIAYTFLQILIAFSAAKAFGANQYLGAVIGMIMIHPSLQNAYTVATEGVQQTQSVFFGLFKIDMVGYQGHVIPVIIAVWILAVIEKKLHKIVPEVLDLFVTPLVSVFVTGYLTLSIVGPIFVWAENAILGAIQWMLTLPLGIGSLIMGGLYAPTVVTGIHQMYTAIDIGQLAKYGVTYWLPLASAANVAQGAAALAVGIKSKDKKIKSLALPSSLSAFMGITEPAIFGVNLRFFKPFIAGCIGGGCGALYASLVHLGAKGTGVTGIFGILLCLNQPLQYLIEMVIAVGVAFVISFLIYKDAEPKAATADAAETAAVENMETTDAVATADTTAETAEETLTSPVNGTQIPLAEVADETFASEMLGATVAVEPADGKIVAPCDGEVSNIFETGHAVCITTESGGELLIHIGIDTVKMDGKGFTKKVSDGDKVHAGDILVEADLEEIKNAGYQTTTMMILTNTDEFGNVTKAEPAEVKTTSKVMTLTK
Description: binding saturation on washed crude membranes; unbound kestose by HPAEC-PAD.

Substrate in series [2]: OC[C@H]1O[C@@](CO)(OC[C@@]2(O[C@H]3O[C@H](CO)[C@@H](O)[C@H](O)[C@H]3O)O[C@H](CO)[C@@H](O)[C@@H]2O)[C@@H](O)[C@@H]1O
Description: uptake saturation in intact E. coli cells; residual kestose by HPAEC-PAD. The note with it: I9min_PTS cells (E. coli EPI100, host EI and HPr/FPr complement), TBS pH 7.0, 37°C, transport. In kind it is cell-based, uncultured bacterium. An excerpt:
uptake saturation in intact E. coli cells; residual kestose by HPAEC-PAD on Dorea PTS_EIIBCA (I9 PTS_EIIBCA) | The affinity constants of kestose uptake by I9min_PTS cells (Km)

In series [1], `OC[C@H]1O[C@@](CO)(OC[C@@]2(O[C@H]3O[C@H](CO)[C@@H](O)[C@H](O)[C@H]3O)O[C@H](CO)[C@@H](O)[C@@H]2O)[C@@H](O)[C@@H]1O` [kestose] came in with a Kd of 51 ± 12 µM.

B1: Dorea PTS_EIIBCA (I9 PTS_EIIBCA) (uncultured bacterium) (protein)
chain: MDYRKTAQDILDHVGGSKNIASAAHCATRLRLVIADNKKVSKEALENIDGVKGVFEASGQLQIILGTGTVNKVFAEFIDIAGITASSKAEAKEAAAEKQNWFMRAIKLLGDIFVPIIPAIVASGFLMGIMNSLDFMNSNGFLHINTHSSIYVFANLFSNIAYTFLQILIAFSAAKAFGANQYLGAVIGMIMIHPSLQNAYTVATEGVQQTQSVFFGLFKIDMVGYQGHVIPVIIAVWILAVIEKKLHKIVPEVLDLFVTPLVSVFVTGYLTLSIVGPIFVWAENAILGAIQWMLTLPLGIGSLIMGGLYAPTVVTGIHQMYTAIDIGQLAKYGVTYWLPLASAANVAQGAAALAVGIKSKDKKIKSLALPSSLSAFMGITEPAIFGVNLRFFKPFIAGCIGGGCGALYASLVHLGAKGTGVTGIFGILLCLNQPLQYLIEMVIAVGVAFVISFLIYKDAEPKAATADAAETAAVENMETTDAVATADTTAETAEETLTSPVNGTQIPLAEVADETFASEMLGATVAVEPADGKIVAPCDGEVSNIFETGHAVCITTESGGELLIHIGIDTVKMDGKGFTKKVSDGDKVHAGDILVEADLEEIKNAGYQTTTMMILTNTDEFGNVTKAEPAEVKTTSKVMTLTK
notes: full-length single multidomain protein (domains B, C, A; ten predicted transmembrane helices)
For the molecule B1, the Km in series [2] was 266 ± 165 µM.
